Results taken from patent US8853227B2, “Methotrexate adjuvants to reduce toxicity and methods for using the same” (Tosk, Incorporated, priority 2008, dated 2014).

Assays:
[1] = Mouse Study III (infection study, WBC counts); type: in vivo, C57BL/6 mice; conditions: Day 11
Method: C57BL/6 mice (n=10/dose group), treated i.p. 50 mg/kg MTX on Day 1, 2, 3, 4, 6 and 8 along with 60 mg/kg TK-112690 i.p. 3 hr±MTX followed by single daily doses TK-112690 on days not treated with MTX. On Day 11, the animals were sacrificed and hematology performed on the resulting blood. Group 1=saline control, Group 2=MTX control and Group 3=MTX+TK-112690.
For the study whose data are presented in FIG. 4, C57BL/6 mice (n=10/dose group) were treated i.p. with 50 mg/kg MTX on Day 1, 2, 3, 4, 6 and 8 along with 60 mg/kg TK-112690 i.p. 3 hr±MTX followed by single daily doses TK-112690 on days not treated with MTX. On Day 11, the animals were bled and hematology performed on the resulting blood samples. Following the hematology measurements, the animals were sacrificed.

[2] = tested on: AS283 human lymphoma xenografts; assay: Mouse Study V (xenograft with AS283 implants); type: in vivo, C.B.-17 SCID mice
Method: Six-week-old male SCID mice were implanted with fragments of AS283 human lymphoma tumors. The tumors were allowed to reach 75-198 mg in weight (75-198 mm^3 in size) before the start of treatment. The experiment consisted of two treatment groups and one vehicle-treated control group, with ten animals per group, for a total of 30 mice on the first day of treatment.
(§1) TK-112690 was administered by ip injection [twice every 2 days for 5 injections with six hour interval (q6h×2, q2d×5)] at a dosage of 30 mg/kg/injection. MTX was administered by ip injection q2d×5 at a dosage of 5.0 mg/kg/injection three hours after the TK-112690 injection. The control group was treated with both vehicles, which were administered on the corresponding compound schedules.
Six-week-old male C.B.-17 SCID mice were acclimated in the laboratories for seven days prior to experimentation. Thirty-to-forty mg fragments of AS283 human lymphoma tumor were implanted sc in mice near the right flank using a 12-gauge trocar needle and allowed to grow. Tumors were allowed to reach 75-198 mg in weight (75-198 mm^3 in size) before the start of treatment. A sufficient number of mice were implanted so that tumors in a weight range as narrow as possible were selected for the trial on the day of treatment initiation (day 8 after tumor implantation). Those animals selected with tumors in the proper size range were assigned to the various treatment groups so that the median tumor weights on the first day of treatment were as close to each other as possible (162 mg for all groups). The experiment consisted of two treatment groups and one vehicle-treated control group with ten animals per group for a total of 30 mice on the first day of treatment.
A 15 mg/mL solution of TK-112690 was prepared daily by dissolving the compound in 100% DMSO (by vortexing as needed) and then adding PBS for a 3 mg/mL dosing solution. The final composition of the vehicle was 20% DMSO/80% PBS. The 25 mg/mL stock solution of MTX for injection was diluted each day of injection with saline to a 0.75 mg/mL dosing solution. Both compounds were administered ip by exact body weight using an injection volume of 0.1 mL for every 10 g of body weight.
as §1, with “intraperitoneal (ip)” for “ip”
The sc tumors were measured and the animals were weighed thrice weekly starting the day of the first treatment. Tumor volume was determined by caliper measurements (mm) and using the formula for an ellipsoid sphere: L×W^2/2=mm^3, where L and W refer to the larger and smaller perpendicular dimensions collected at each measurement. This formula is also used to calculate tumor weight, assuming unit density (1 mm^3=1 mg).
The study was terminated twenty one days after tumor implantation. Any animal found moribund or any animal whose tumor reached 4,000 mg, ulcerated or was sloughed off was euthanized prior to study termination.

[3] = tested on: Wild-type (Oregon-R) Drosophila melanogaster; assay: Fly Study II, MTX lethality in wild-type flies; type: in vivo
Method: (§2) Embryos of UPase knockout (19519) Drosophila melanogaster were orally exposed to a dose range of MTX doses in food admix. Embryos of Wild-type (Oregon-R) were orally exposed to the same dose range of MTX in presence and absence of 0.04 mg TK-112690. Scoring was based on life or death 15 days after initiation of MTX exposure. […] Wild-type D. melanogaster are sensitive to lethal effects of 0.1 mg MTX.
(§3) The aim of this study was to evaluate the lethal effects of a range (0.001, 0.01, 0.05, 0.1, 0.2, 0.4 mg) of doses of orally fed MTX in wild-type (Ore-R) and UPase mutant Drosophila melanogaster. Embryos of UPase knockout (19519) Drosophila melanogaster were orally exposed to a dose range of MTX (0.001, 0.01, 0.05, 0.1, 0.2, 0.4 mg) in food admix. Embryos of Wild-type (Oregon-R) were orally exposed to the same dose range of MTX in presence and absence of 0.04 mg TK-112690. Scoring was based on life or death 15 days after initiation of MTX exposure.

[4] = Mouse Study II (protection from loss of mucosal permeability, oral iodixanol in plasma); type: in vivo, C57BI/6 female mice; conditions: day 7
Method: C57BI/6 female mice (n=7) were treated intraperitoneal (ip) with 100 mg/kg MTX on days 2, 3 and 4 with and without 60 mg/kg TK-112690 (ip) three hours before, and after, MTX injections. On day 7, mucosal barrier injury was estimated by measuring plasma concentrations of orally administered iodixanol determined by HPLC using UV detection (Boxplots with minimum and maximum values (black lines). Orally administered iodixanol is not absorbed absent an increase in mucosal permeability. Group 1=saline control, Group 2=MTX and Group 3=MTX+TK-112690.
The aim of this study was to evaluate the ability of a representative a 2,2′-anhydropyrimidine test article to mitigate MTX-induced loss of mucosal permeability. C57BI/6 female mice (n=7) were treated (ip) with 100 mg/kg MTX on days 2, 3 and 4 with and without 60 mg/kg TK-112690 (ip) three hours before, and after, MTX injections. On day 7, mucosal barrier injury was estimated by measuring plasma concentrations of orally administered iodixanol determined by HPLC using UV detection. Orally administered iodixanol is not absorbed absent an increase in mucosal permeability.

[5] = tested on: UPase knockout (19519) Drosophila melanogaster; assay: Fly Study II, MTX lethality in UPase knockout flies; type: in vivo
Method: as §2, §3

[6] = MTX alone 5.0 mg/kg/injection ip q2d×5, day 21
[7] = TK-112690 30 mg/kg/injection combined with MTX 5.0 mg/kg/injection, day 21

| SMILES | systemic WBC level ([1]; 50 mg/kg MTX ip Day 1, 2, 3, 4, 6, 8, p<0.02 vs saline or MTX+TK-112690) | median tumor weight value, % of the control on day 21 ([2]; MTX alone 5.0 mg/kg/injection ip q2d×5) | median tumor weight value smaller than the median at the start of treatment (162 mg) [2, 6] | median tumor weight value smaller than the median at the start of treatment (162 mg), % [2, 6] | MTX dose lethal to wild-type flies ([3]; oral in food admix, 15 days after initiation of MTX exposure) | mucosal barrier injury (increased plasma iodixanol) ([4]; 100 mg/kg MTX ip on Days 2, 3 and 4) | sensitivity of UPase knockout flies to lethal effects of MTX ([5]; MTX 0.001-0.4 mg oral, 15 days) | protection from MTX-induced mucositis measured as prevention of WBC increase ([1]; 60 mg/kg ip 3 hr ± MTX 50 mg/kg) | median tumor weight value smaller than the median at the start of treatment (162 mg) [2, 7] | median tumor weight value smaller than the median at the start of treatment (162 mg), % [2, 7] | median tumor weight value, % of the control on day 21 ([2]; TK-112690 30 mg/kg/injection ip (q6h×2, q2d×5) combined with MTX 5.0 mg/kg/injection) | tumor volumes, MTX+TK-112690 versus MTX ([2]; day 21, p=1.0) | sensitivity of wild-type flies to lethal effects of MTX in the presence of TK-112690 ([3]; 0.04 mg TK-112690, MTX 0.001-0.4 mg oral, 15 days) | methotrexate dose from whose lethality TK-112690 protects ([3]; 0.04 mg TK-112690, wild-type flies, 15 days) | protection from MTX-induced mucosal barrier injury (plasma concentration of orally administered iodixanol) ([4]; 60 mg/kg ip 3 h before and after 100 mg/kg MTX, days 2, 3, 4, p<0.05) | added protection from methotrexate toxicities by TK-112690 in UPase mutant flies ([5]; UPase mutant flies, dose range of methotrexate) |
| --- | --- | --- | --- | --- | --- | --- | --- | --- | --- | --- | --- | --- | --- | --- | --- | --- |
| CN(Cc1cnc2nc(N)nc(N)c2n1)c1ccc(C(=O)N[C@@H](CCC(=O)O)C(=O)O)cc1 [MTX, N-[4-[[(2,4-diamino-6-pteridinyl)methyl]methylamino]benzoyl]-L-glutamic acid, reference compound] | increases systemic WBC | 2.8% | 40.0 mg | 24.7% | 0.1 mg | experienced mucosal barrier injury | resistant to lethal effects |  |  |  |  |  |  |  |  |  |
| Cc1cn2c(nc1=O)O[C@H]1[C@H](O)[C@@H](CO)O[C@H]12 [TK-112690, 2,2′-anhydro-5-methyluridine] |  |  |  |  |  |  |  | protects from MTX-induced mucositis | 9.0 mg | 5.6% | 3.5% | no statistical difference | resistant to the lethal effects | ≤ 0.4 mg | protected mice from MTX-induced mucosal barrier injury | does not provide added protection |
